According to patent US20170143738A1, “SOLID FORMULATION AND METHOD FOR STABILIZING THE SAME” (EA Pharma Co., Ltd., priority 2014, published 2017):

Legend:
[1] = Visual observation of coloration of Elobixibat and Elobixibat/additive mixtures after storage; type: physicochemical; conditions: 60° C. and 75% relative humidity, visually observed
Experimental: (§1) 1,1-dioxo-3,3-dibutyl-5-phenyl-7-methylthio-8-(N—{(R)-1′-phenyl-1′-[N′-(carboxymethyl)carbamoyl]methyl}carbamoylmethoxy)-2,3,4,5-tetrahydro-1,5-benzothiazepine (Elobixibat) and an additive shown in Table 1 were mixed in a weight ratio of 1:1. Thereby, the mixtures according to Reference Examples 2 to 10 were obtained. The mixture of each of Reference Examples 2 to 10, and only Elobixibat as Reference Example 1 was independently stored in an open state for 2 weeks under the conditions of 60° C. and 75% relative humidity. The material of Reference Example 1 and the mixtures according to Reference Examples 2 to 10 after storage were independently dispersed and dissolved in acetonitrile aqueous solution. The total amount of related substance(s) in the aforementioned aqueous solution was calculated as the sum of the areas in percentage for Elobixibat by the measurement in accordance with an HPLC method. In addition, the presence or absence of coloration of the mixtures of Reference Examples 1 to 7 after storage was visually observed. “%” shown in Table 1 indicates percent by weight.

[2] = Storage stability of Elobixibat alone or mixed 1:1 with an additive: total related substance(s) by HPLC; type: physicochemical; conditions: stored in an open state for 2 weeks, 60° C. and 75% relative humidity
Experimental: as §1

- Coloration: Before storage → after storage ([1]; colour before and after 2 weeks open storage): White → white
- Coloration after storage ([1]; stored in an open state for 2 weeks): Not observed
- Total amount of related substance(s) after storage ([2]; weight ratio 1:1 with additive, sum of HPLC areas in percentage for Elobixibat): 0.6%
SMILES: CCCCC1(CCCC)CN(c2ccccc2)c2cc(SC)c(OCC(=O)N[C@@H](C(=O)NCC(=O)O)c3ccccc3)cc2S(=O)(=O)C1 [Reference Example 1, 1,1-dioxo-3,3-dibutyl-5-phenyl-7-methylthio-8-(N—{(R)-1′-phenyl-1′-[N′-(carboxymethyl)carbamoyl]methyl}carbamoylmethoxy)-2,3,4,5-tetrahydro-1,5-benzothiazepine]
- Increase of the amount of related substance(s) after storage (in words) ([2]; summary of Table 1): a great increase of the related substance(s) was not observed
